test system: HT-29 cells; test: Inhibition of TNF-α-induced necroptosis of HT-29 cells (SRB method); type: cell-based, human; conditions: Homo sapiens, HT-29, TNF-α 20 ng/mL + BV6 2 µM + Z-VAD-FMK 20 µM, 18 h
Summary of the method: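 HT-29 cells (3 × 10^4/well, 24 h) were treated 18 h with compound (8 three-fold dilutions, 1000.00-0.46 nM, duplicate) plus TNF-α 20 ng/mL, BV6 2 µM and Z-VAD-FMK 20 µM final, at 37 °C. Viability was read by SRB absorbance; EC50 values were fitted.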

Compound | EC50
CN1C(=O)[C@@H](NC(=O)c2nnc(Cc3ccccc3)[nH]2)COc2ccccc21 [GSK2982772, (S)-5-benzyl-N-(5-methyl-4-oxo-2,3,4,5-tetrahydrobenzo[b][1,4]oxazepin-3-yl)-4H-1,2,4-triazole-3-carboxamide, reference compound] | 5 to 10 nM
Cn1cc(C#Cc2cc3c4c(c2)CCN4C(=O)C(NC(=O)c2ncn(Cc4c(F)cccc4F)n2)CC3)cn1 (stereo not drawn) [III-1, 1-(2,6-difluorobenzyl)-N-(9-((1-methyl-1H-pyrazol-4-yl)ethynyl)-4-oxo-1,2,3,4,6,7-hexahydroazepino[3,2,1-hi]indol-3-yl)-1H-1,2,4-triazole-3-carboxamide] | < 5 nM
Cn1cc(C#Cc2cc3c4c(c2)CCN4C(=O)C(NC(=O)c2ncn(Cc4cc(F)ccc4F)n2)CC3)cn1 (stereo not drawn) [III-10, 1-(2,5-difluorobenzyl)-N-(9-((1-methyl-1H-pyrazol-4-yl)ethynyl)-4-oxo-1,2,3,4,6,7-hexahydroazepino[3,2,1-hi]indol-3-yl)-1H-1,2,4-triazole-3-carboxamide] | < 5 nM
Cn1cc(C#Cc2cc3c4c(c2)CCN4C(=O)C(NC(=O)c2ncn(Cc4ccc(F)c(F)c4)n2)CC3)cn1 (stereo not drawn) [III-12, 1-(3,4-difluorobenzyl)-N-(9-((1-methyl-1H-pyrazol-4-yl)ethynyl)-4-oxo-1,2,3,4,6,7-hexahydroazepino[3,2,1-hi]indol-3-yl)-1H-1,2,4-triazole-3-carboxamide] | 10 to 100 nM
O=C(NC1CCc2cc(C#Cc3cnn(C(F)F)c3)cc3c2N(CC3)C1=O)c1ncn(Cc2cc(F)ccc2F)n1 (stereo not drawn) [III-19, 1-(2,5-difluorobenzyl)-N-(9-((1-(difluoromethyl)-1H-pyrazol-4-yl)ethynyl)-4-oxo-1,2,3,4,6,7-hexahydroazepino[3,2,1-hi]indol-3-yl)-1H-1,2,4-triazole-3-carboxamide] | < 5 nM
O=C(NC1CCc2cc(C#Cc3cnn(C(F)F)c3)cc3c2N(CC3)C1=O)c1ncn(Cc2ccccc2F)n1 (stereo not drawn) [III-21, N-(9-((1-(difluoromethyl)-1H-pyrazol-4-yl)ethynyl)-4-oxo-1,2,3,4,6,7-hexahydroazepino[3,2,1-hi]indol-3-yl)-1-(2-fluorobenzyl)-1H-1,2,4-triazole-3-carboxamide] | < 5 nM
C#Cc1cc2c3c(c1)CCN3C(=O)C(NC(=O)c1ncn(Cc3c(F)cccc3F)n1)CC2 (stereo not drawn) [III-26, 1-(2,6-difluorobenzyl)-N-(9-ethynyl-4-oxo-1,2,3,4,6,7-hexahydroazepino[3,2,1-hi]indol-3-yl)-1H-1,2,4-triazole-3-carboxamide] | < 5 nM

same assay, conditions: TNF-α 20 ng/mL + BV6 2 µM + Z-VAD-FMK 20 µM, 18 h

Compound | EC50
O=C(NC1CCc2cc(C#Cc3cnn(C(F)F)c3)cc3c2N(CC3)C1=O)c1ncn(Cc2c(F)cccc2F)n1 (stereo not drawn) [III-17, 1-(2,6-difluorobenzyl)-N-(9-((1-(difluoromethyl)-1H-pyrazol-4-yl)ethynyl)-4-oxo-1,2,3,4,6,7-hexahydroazepino[3,2,1-hi]indol-3-yl)-1H-1,2,4-triazole-3-carboxamide] | < 5 nM
N-(9-((1-(difluoromethyl)-1H-pyrazol-4-yl)ethynyl)-4-oxo-1,2,3,4,6,7-hexahydroazepino[3,2,1-hi]indol-3-yl)-1-(4-methylbenzyl)-1H-1,2,4-triazole-3-carboxamide [III-25] | 5 to 10 nM

Reference: EP4772510A2, “BENZAZEPINONE COMPOUND AND USE THEREOF” (HANGZHOU BIO-SINCERITY PHARMA-TECHCO., LTD., priority 2023, dated 2025)
